Source: PMC10962836, “Cis-regulatory polymorphism at fiz ecdysone oxidase contributes to polygenic evolutionary response to malnutrition in Drosophila” (PLOS Genetics, 2024)

Target: T1, Fiz (Drosophila melanogaster, UniProt Q9VY04)
T1 construct: N-terminal RGS-6xHis tag kept; E. coli Rosetta Gami DE3, Ni-NTA; contains FAD
T1 sequence (Q9VY04 2-646): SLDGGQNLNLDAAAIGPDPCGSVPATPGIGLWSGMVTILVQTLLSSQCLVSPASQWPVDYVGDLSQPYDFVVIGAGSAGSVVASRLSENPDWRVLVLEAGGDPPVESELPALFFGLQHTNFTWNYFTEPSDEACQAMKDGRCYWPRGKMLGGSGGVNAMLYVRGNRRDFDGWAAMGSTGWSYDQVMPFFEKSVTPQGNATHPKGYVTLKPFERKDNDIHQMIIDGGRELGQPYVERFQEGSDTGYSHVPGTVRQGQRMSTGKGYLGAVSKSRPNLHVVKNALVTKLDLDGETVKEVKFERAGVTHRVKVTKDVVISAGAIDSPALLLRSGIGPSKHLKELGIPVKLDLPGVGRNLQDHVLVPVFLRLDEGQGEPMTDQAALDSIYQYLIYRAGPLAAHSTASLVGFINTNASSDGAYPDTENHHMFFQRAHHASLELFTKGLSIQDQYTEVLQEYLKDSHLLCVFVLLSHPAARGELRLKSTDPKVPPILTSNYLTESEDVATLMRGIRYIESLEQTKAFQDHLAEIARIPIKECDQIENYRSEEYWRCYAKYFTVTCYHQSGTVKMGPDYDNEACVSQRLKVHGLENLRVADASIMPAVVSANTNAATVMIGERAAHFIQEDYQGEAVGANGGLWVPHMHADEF
Experiment: FAD content of purified protein (method in supplement)
Type: binding
Conditions: co-purified from E. coli, no FAD addition told

SMILES: Cc1cc2nc3c(=O)[nH]c(=O)nc-3n(C[C@H](O)[C@H](O)[C@H](O)COP(=O)(O)OP(=O)(O)OC[C@H]3O[C@@H](n4cnc5c(N)ncnc54)[C@H](O)[C@@H]3O)c2cc1C [FAD]
- FAD content of purified protein (method in supplement): we confirmed that our purified Fiz contained FAD
